Series [1] in a line: Metabolic stability in human liver microsomes assessed as clearance at 1 uM measured upto 90 mins by LC-MS/MS analysis. It is filed as ADME, Microsome. Particulars: read-out: CLH. (In general: Liver microsomes are vesicles of endoplasmic reticulum, rich in cytochrome P450 enzymes.)
A short description of series [2]: Cmax in Sprague-Dawley rat at 1 mg/kg, iv measured upto 24 hrs by LC-MS/MS analysis. It is filed as ADME, organism-based. More on the design: dose 1 mg/kg, time < 24 hrs, route iv. Particulars: in vivo.
Series [3] in a line: Half life in Sprague-Dawley rat at 1 mg/kg, iv measured upto 24 hrs by LC-MS/MS analysis. It counts as ADME, organism-based. Particulars: in vivo.
The nature of series [4]: Metabolic stability in human liver microsomes assessed as half life at 1 uM measured upto 90 mins by LC-MS/MS analysis. It is filed as ADME, Microsome.
A short description of series [5]: AUClast in Sprague-Dawley rat at 1 mg/kg, iv measured upto 24 hrs by LC-MS/MS analysis. It counts as ADME, organism-based. More on the design: dose 1 mg/kg, time < 24 hrs, route iv. Particulars: in vivo.
Series [6] can be described thus: Metabolic stability in rat liver microsomes assessed as half life at 1 uM measured upto 90 mins by LC-MS/MS analysis. It counts as ADME, Microsome.
Series [7] is described as follows: Cmax in Sprague-Dawley rat at 5 mg/kg, po measured upto 24 hrs by LC-MS/MS analysis. It is filed as ADME, organism-based. Also noted: dose 5 mg/kg, time < 24 hrs, route po. Particulars: in vivo.
Series [8] can be described thus: Oral bioavailability in Sprague-Dawley rat at 5 mg/kg measured upto 24 hrs by LC-MS/MS analysis. It is filed as ADME, organism-based. Particulars: in vivo.
Series [9] is described as follows: Metabolic stability in rat liver microsomes assessed as clearance at 1 uM measured upto 90 mins by LC-MS/MS analysis. It is filed as ADME, Microsome. Particulars: read-out: CLH.
Series [10] is described as follows: Volume of distribution at steady state in Sprague-Dawley rat at 1 mg/kg, iv measured upto 24 hrs by LC-MS/MS analysis. Particulars: in vivo, read-out: Vdss. It is filed as ADME, organism-based.
Series [11] in a line: Half life in Sprague-Dawley rat at 5 mg/kg, po measured upto 24 hrs by LC-MS/MS analysis. It counts as ADME, organism-based. Particulars: in vivo.
Series [12] can be described thus: Apparent […] clearance in Sprague-Dawley rat at 1 mg/kg, iv measured upto 24 hrs by LC-MS/MS analysis. It counts as ADME, organism-based. Particulars: in vivo.
A short description of series [13]: AUClast in Sprague-Dawley rat at 5 mg/kg, po measured upto 24 hrs by LC-MS/MS analysis. Also noted: dose 5 mg/kg, time < 24 hrs, route po. It is filed as ADME, organism-based. Particulars: in vivo.

In general, Cmax refers to the highest concentration seen after dosing. As a reminder, the half-life is the time needed for the level to fall by half in the phase considered. Broadly, the AUC(0-t) is exposure summed from dosing to a finite time, without extrapolation to infinity. A higher AUC(0-t) goes with more exposure. One may read the CL/F as clearance divided by bioavailability, as obtained after extravascular dosing. Take `O=C1COc2cc(F)c(C(=O)Nc3cccc(-c4nncn4C4CCCC4)n3)cc2N1`: the CLint scaled at 1 µM is 94.3 mL/min/kg in series [1] and 70.8 mL/min/kg in series [9]. Besides, the Cmax in series [2] came to 1080 ng/mL; in series [7], 1490 ng/mL. The figures for the half-life in series [3] and in series [11] were 0.86 h and 2.36 h, respectively. Besides, the half-life at 1 µM stood at 0.307 h in [4] and 0.585 h in [6]. Moreover, the AUC(0-t) at 24 h is 919 ng·h/mL in series [5] and 3390 ng·h/mL in series [13]. The bioavailability in series [8] was determined as 77.7%. Further, the Vd in series [10] was 0.97 L/kg. Moreover, the CL/F in [12] is 18.2 mL/min/kg.
Turning to `CC(C)n1cnnc1-c1cccc(NC(=O)c2cc3c(cc2F)OCC(=O)N3)n1`, the CLint scaled at 1 µM in series [1] amounted to 3 mL/min/kg; in series [9], 13.7 mL/min/kg. For the same molecule, the Cmax in [2] stood at 1040 ng/mL; in series [7], 1260 ng/mL. For the same molecule, the half-life is 1.11 h in [3] and 1.86 h in series [11]. In addition, the half-life at 1 µM came out at 9.74 h in series [4] and 3.02 h in [6]. Also, the AUC(0-t) at 24 h in series [5] came to 1630 ng·h/mL; in [13], 4290 ng·h/mL. Also, the bioavailability in [8] came out at 56.4%. In addition, in [10], the Vd amounted to 0.85 L/kg. Moreover, the CL/F in series [12] is 10.2 mL/min/kg.
For `CC(C)n1cnnc1-c1cccc(NC(=O)c2cc3c(cc2F)CCC(=O)N3)c1`, the CLint scaled at 1 µM worked out at 1.7 mL/min/kg in series [1] and 7.5 mL/min/kg in series [9]. Further, the Cmax in series [2] is 274 ng/mL; in [7] it was 58 ng/mL. In addition, the values for the half-life in [3] and in [11] were 0.68 h and 1.79 h, respectively. In addition, the half-life at 1 µM in series [4] is 17.3 h; in [6], 5.49 h. Also, the AUC(0-t) at 24 h in series [5] came to 222 ng·h/mL; in series [13], 157 ng·h/mL. Besides, the bioavailability in [8] came out at 15.1%. The Vd in series [10] is 3.41 L/kg. Besides, the CL/F in [12] was 74.5 mL/min/kg.
In the case of `CC(C)n1cnnc1-c1cccc(NC(=O)c2cc3c(cc2F)OCc2cncn2-3)c1`, the CLint scaled at 1 µM in series [1] worked out at 63.3 mL/min/kg; in [9] it was 378 mL/min/kg. For the same molecule, the Cmax in series [2] was 235 ng/mL; in series [7], 445 ng/mL. In addition, the half-life in series [3] is 0.63 h; in series [11] it was 1.13 h. Also, the figures for the half-life at 1 µM in series [4] and in [6] were 0.458 h and 0.11 h, respectively. For the same molecule, the AUC(0-t) at 24 h turned out to be 329 ng·h/mL in series [5] and 939 ng·h/mL in series [13]. Also, the bioavailability in series [8] worked out at 57.4%. Further, in series [10], the Vd was 2.61 L/kg. Besides, the CL/F in [12] was 50.3 mL/min/kg.
Turning to `O=C1COc2cc(F)c(C(=O)Nc3cccc(-c4nncn4-c4ccccc4)n3)cc2N1`, the figures for the CLint scaled at 1 µM in series [1] and in series [9] were 11.4 mL/min/kg and 4.7 mL/min/kg, respectively. Moreover, the results for the Cmax in series [2] and in [7] were 1580 ng/mL and 3000 ng/mL, respectively. Further, the half-life in series [3] is 3.15 h; in series [11], 2.95 h. Also, the half-life at 1 µM in series [4] amounted to 2.55 h; in series [6] it was 8.74 h. In addition, the AUC(0-t) at 24 h turned out to be 5070 ng·h/mL in series [5] and 12100 ng·h/mL in [13]. The bioavailability in series [8] is 47.9%. Also, the Vd in series [10] is 0.68 L/kg. For the same molecule, in series [12], the CL/F is 3.33 mL/min/kg.
Take `CC(C)n1cnnc1-c1cccc(NC(=O)c2cc3c(cc2F)CCCC(=O)N3C)c1`: the CLint scaled at 1 µM was 7.8 mL/min/kg in [1] and 10.4 mL/min/kg in series [9]. In addition, the Cmax in series [2] is 758 ng/mL; in series [7], 341 ng/mL. Moreover, the half-life was 0.8 h in [3] and 1.44 h in series [11]. Also, the half-life at 1 µM in [4] came out at 3.72 h; in [6], 3.97 h. Also, the values for the AUC(0-t) at 24 h in series [5] and in series [13] were 449 ng·h/mL and 712 ng·h/mL, respectively. Further, the bioavailability in series [8] was 33.2%. Also, in [10], the Vd came out at 1.44 L/kg. Also, the CL/F in [12] is 36.8 mL/min/kg.
For `O=C1CCCc2cc(F)c(C(=O)Nc3cccc(-c4nncn4C4CC4)n3)cc2N1`, the CLint scaled at 1 µM was 2.4 mL/min/kg in series [1] and 4.7 mL/min/kg in series [9]. Further, the Cmax came out at 1220 ng/mL in series [2] and 829 ng/mL in series [7]. The half-life in [3] was 0.71 h; in [11] it was 3.82 h. Also, the half-life at 1 µM in series [4] is 11.9 h; in [6] it was 8.87 h. Further, the exposure AUC(0-t) at 24 h worked out at 1170 ng·h/mL in series [5] and 2720 ng·h/mL in series [13]. In series [8], the bioavailability was 47%. Moreover, in series [10], the Vd was 0.7 L/kg. In addition, the CL/F in [12] is 14.2 mL/min/kg.
For the molecule `CC(C)n1cnnc1-c1cccc(NC(=O)c2cc3c(cc2F)CCC(=O)N3)n1`, the CLint scaled at 1 µM was 5.8 mL/min/kg in [1] and 13.3 mL/min/kg in [9]. Also, the Cmax in [2] stood at 2080 ng/mL; in series [7], 334 ng/mL. Besides, the results for the half-life in [3] and in series [11] were 0.71 h and 1.46 h, respectively. Also, the half-life at 1 µM in series [4] stood at 4.98 h; in series [6] it was 3.12 h. The AUC(0-t) at 24 h in series [5] was 1260 ng·h/mL; in series [13] it was 534 ng·h/mL. Besides, in series [8], the bioavailability turned out to be 8.8%. The Vd in [10] was found to be 0.56 L/kg. The CL/F in series [12] was 13.2 mL/min/kg.
As to `CN1C(=O)CCCc2cc(F)c(C(=O)Nc3cccc(-c4nncn4C4CC4)n3)cc21`, the CLint scaled at 1 µM is 11.1 mL/min/kg in series [1] and 13.2 mL/min/kg in [9]. Moreover, the results for the maximum concentration (Cmax) in [2] and in [7] were 799 ng/mL and 1850 ng/mL, respectively. For the same molecule, the results for the half-life in [3] and in series [11] were 1.22 h and 1.97 h, respectively. Also, the half-life at 1 µM in series [4] stood at 2.6 h; in series [6] it was 3.15 h. Besides, the AUC(0-t) at 24 h in [5] is 1340 ng·h/mL; in series [13] it was 7530 ng·h/mL. Further, the bioavailability in [8] was found to be 121%. In series [10], the Vd was 1.14 L/kg. The CL/F in series [12] was 12.2 mL/min/kg.
Regarding `CC(C)n1cnnc1-c1cccc(NC(=O)c2cc3c(cc2F)C(C)(C)CC(=O)N3C)n1`, the figures for the CLint scaled at 1 µM in [1] and in series [9] were 10.7 mL/min/kg and 25.3 mL/min/kg, respectively. The Cmax stood at 418 ng/mL in [2] and 550 ng/mL in series [7]. Moreover, the values for the half-life in series [3] and in series [11] were 1.12 h and 5.02 h, respectively. The figures for the half-life at 1 µM in series [4] and in series [6] were 2.71 h and 1.64 h, respectively. Further, the AUC(0-t) at 24 h in series [5] turned out to be 789 ng·h/mL; in series [13] it was 3180 ng·h/mL. The bioavailability in series [8] came to 89.1%. For the same molecule, the Vd in series [10] was found to be 1.82 L/kg. In [12], the CL/F was 20.8 mL/min/kg.
With `CC(CO)n1cnnc1-c1cccc(NC(=O)c2cc3c(cc2F)CCCC(=O)N3C)n1` (stereo unspecified), the CLint scaled at 1 µM is 8.5 mL/min/kg in series [1] and 14 mL/min/kg in [9]. In addition, the peak concentration (Cmax) in series [2] is 440 ng/mL; in [7], 28 ng/mL. The half-life was 0.63 h in [3] and 1.51 h in series [11]. For the same molecule, the half-life at 1 µM is 3.41 h in series [4] and 2.96 h in [6]. Also, the AUC(0-t) at 24 h in series [5] stood at 216 ng·h/mL; in [13], 61 ng·h/mL. Also, the bioavailability in [8] was found to be 5.9%. Also, the Vd in series [10] turned out to be 2.36 L/kg. In series [12], the CL/F is 76.7 mL/min/kg.
`CC(C)n1cnnc1-c1cccc(NC(=O)c2cc3c(cc2F)CCCC(=O)N3)n1`: the values for the CLint scaled at 1 µM in series [1] and in series [9] were 3.3 mL/min/kg and 6.6 mL/min/kg, respectively. Besides, the results for the Cmax in series [2] and in [7] were 1070 ng/mL and 1270 ng/mL, respectively. Moreover, the half-life is 1.24 h in series [3] and 1.63 h in series [11]. For the same molecule, the half-life at 1 µM in [4] came out at 8.8 h; in series [6] it was 6.24 h. Besides, the AUC(0-t) at 24 h is 1270 ng·h/mL in [5] and 4830 ng·h/mL in series [13]. For the same molecule, the bioavailability in [8] was 77.7%. In addition, in series [10], the Vd amounted to 1.07 L/kg. For the same molecule, the CL/F in series [12] was 12.8 mL/min/kg.

Values taken from ChEMBL document CHEMBL5344477, “Discovery of benzoheterocyclic-substituted amide derivatives as apoptosis signal-regulating kinase 1 (ASK1) inhibitors” (RSC Med Chem, 2024).
